Reference: PMC9011347, “Small-Molecule Inhibitors Targeting Lipolysis in Human Adipocytes” (Journal of the American Chemical Society, 2022)

Target: T1, ATGL and G0S2 (Homo sapiens, UniProt Q96AD5)
T1 construct: expressed in transfected cells; host or cells: HEK293 cells; NG-497 added to the lysates
Experiment: Co-immunoprecipitation of ATGL and G0S2
Format: binding
Settings: NG-497 40 µM, HEK293 lysates, FLAG-ATGL and His-G0S2
Procedure: Fig. S2: Effect of NG-497 on the protein-protein interaction of ATGL and G0S2 investigated by co-immunoprecipitation.
HEK293 cells were co-transfected with FLAG-tagged ATGL and His-tagged G0S2 (both human). As controls, FLAG-tagged ATGL was co-expressed with His-LacZ, and His-tagged G0S2 with empty FLAG-vector (e-FLAG). (a) Protein expression of the indicated plasmid combinations was confirmed using anti-Xpress and anti-Flag antibodies. (b) Cell lysates were incubated with anti-FLAG M2 affinity beads in the presence or absence of NG-497 (40 µM). After extensive washing, bound proteins were eluted by boiling in SDS-containing sample buffer and subjected to Western blotting analysis. His-G0S2 was exclusively […]
Data are representative for two
(1 picture or pasted object on this page, not shown here)
Co-immunoprecipitation. HEK293 cells were co-transfected with the indicated plasmid combinations using Metafectene (#T020-5.0; Biontex, Germany) according to the manufacturer’s instructions. […]
Analysis of toxicity in HepG2 hepatocytes. […] Release of LDH into the medium was analyzed using the Cytotoxicity Detection Kit PLUS (LDH) (MilliporeSigma) according to the manufacturer’s instructions. Cytotoxicity was calculated as relative LDH release as compared to fully lysed cells. […]

T1 sequence (Q96AD5 whole entry): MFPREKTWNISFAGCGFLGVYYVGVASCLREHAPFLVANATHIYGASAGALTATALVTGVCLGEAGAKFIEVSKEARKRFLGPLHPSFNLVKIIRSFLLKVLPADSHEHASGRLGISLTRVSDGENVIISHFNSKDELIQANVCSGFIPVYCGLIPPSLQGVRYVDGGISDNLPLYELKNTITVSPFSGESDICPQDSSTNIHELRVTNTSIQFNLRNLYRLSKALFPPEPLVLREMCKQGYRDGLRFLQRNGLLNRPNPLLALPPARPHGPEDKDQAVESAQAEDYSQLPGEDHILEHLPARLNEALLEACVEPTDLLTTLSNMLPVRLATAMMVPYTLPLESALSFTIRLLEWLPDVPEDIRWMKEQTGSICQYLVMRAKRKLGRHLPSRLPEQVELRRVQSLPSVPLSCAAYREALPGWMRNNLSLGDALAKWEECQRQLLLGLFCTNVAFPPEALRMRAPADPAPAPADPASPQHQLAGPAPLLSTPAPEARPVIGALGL
T1 sequence (P27469 whole entry partner): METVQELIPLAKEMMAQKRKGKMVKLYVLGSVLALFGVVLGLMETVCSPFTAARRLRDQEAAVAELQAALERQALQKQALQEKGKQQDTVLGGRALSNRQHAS

CCOc1ccc(-c2cc(OC)cc(C(=O)OC(C)C)n2)cc1 [NG-497]
G0S2 binding to ATGL (co-immunoprecipitation): increased G0S2 binding
